# Measurements as given in PubChem BioAssay (NCI).
#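 48-hour exposure; five concentrations; linearly interpolated endpoints. GI50 marks 50% less growth. Definition used: TGI = concentration required for complete inhibition of growth.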
# What was measured:
# Test in all cases: NCI-60 cell line screen, 48 h
# OVCAR-5 ovarian = test system: OVCAR-5 ovarian
# HOP-62 NSCLC = test system: HOP-62 NSCLC
# SF-539 CNS = test system: SF-539 CNS
# COLO 205 colon = test system: COLO 205 colon
# SF-268 CNS = test system: SF-268 CNS
# DU-145 prostate = test system: DU-145 prostate
# OVCAR-3 ovarian = test system: OVCAR-3 ovarian
# RXF 393 renal = test system: RXF 393 renal
# SNB-19 CNS = test system: SNB-19 CNS
# MOLT-4 leukemia = test system: MOLT-4 leukemia
# OVCAR-8 ovarian = test system: OVCAR-8 ovarian
# OVCAR-4 ovarian = test system: OVCAR-4 ovarian
# MALME-3M melanoma = test system: MALME-3M melanoma
# CCRF-CEM leukemia = test system: CCRF-CEM leukemia
# SK-OV-3 ovarian = test system: SK-OV-3 ovarian
# KM12 colon = test system: KM12 colon
# UACC-62 melanoma = test system: UACC-62 melanoma
# NCI/ADR-RES ovarian = test system: NCI/ADR-RES ovarian
# MDA-MB-231 breast = test system: MDA-MB-231 breast
# HT29 colon = test system: HT29 colon
# SN12C renal = test system: SN12C renal
# HS 578T breast = test system: HS 578T breast
# MCF7 breast = test system: MCF7 breast
# NCI-H460 lung = test system: NCI-H460 lung
# K-562 leukemia = test system: K-562 leukemia
# UACC-257 melanoma = test system: UACC-257 melanoma
# HOP-92 NSCLC = test system: HOP-92 NSCLC
# SF-295 CNS = test system: SF-295 CNS
# A498 renal = test system: A498 renal
# SR leukemia = test system: SR leukemia
# UO-31 renal = test system: UO-31 renal
# SK-MEL-28 melanoma = test system: SK-MEL-28 melanoma
# HCT-15 colon = test system: HCT-15 colon
# U251 CNS = test system: U251 CNS
# SNB-75 CNS = test system: SNB-75 CNS
# CAKI-1 renal = test system: CAKI-1 renal
# MDA-MB-435 = test system: MDA-MB-435
# NCI-H226 lung = test system: NCI-H226 lung
# PC-3 prostate = test system: PC-3 prostate
# HCC-2998 colon = test system: HCC-2998 colon
# M14 melanoma = test system: M14 melanoma
# NCI-H23 lung = test system: NCI-H23 lung
# MDA-MB-468 breast = test system: MDA-MB-468 breast
# EKVX NSCLC = test system: EKVX NSCLC
# ACHN renal = test system: ACHN renal
# SK-MEL-2 melanoma = test system: SK-MEL-2 melanoma
# HCT-116 colon = test system: HCT-116 colon
# BT-549 breast = test system: BT-549 breast
# IGROV1 ovarian = test system: IGROV1 ovarian
# SW-620 colon = test system: SW-620 colon
# A549 NSCLC = test system: A549 NSCLC
# LOX IMVI melanoma = test system: LOX IMVI melanoma
# 786-0 renal = test system: 786-0 renal
# SK-MEL-5 melanoma = test system: SK-MEL-5 melanoma
# T-47D breast = test system: T-47D breast
# TK-10 renal = test system: TK-10 renal
# RPMI-8226 leukemia = test system: RPMI-8226 leukemia
# NCI-H522 lung = test system: NCI-H522 lung
# HL-60(TB) leukemia = test system: HL-60(TB) leukemia
smiles,measurement,setting,value
COc1cc(Cn2c(C(F)(F)F)cc3c(Cl)ncnc32)ccn1,GI50,OVCAR-5 ovarian,16 µM
same,TGI,OVCAR-5 ovarian,32.4 µM
same,GI50,HOP-62 NSCLC,14.3 µM
same,TGI,HOP-62 NSCLC,29.7 µM
same,GI50,SF-539 CNS,13.8 µM
same,TGI,SF-539 CNS,26.7 µM
same,GI50,COLO 205 colon,15.3 µM
same,TGI,COLO 205 colon,46.3 µM
same,GI50,SF-268 CNS,2.47 µM
same,TGI,SF-268 CNS,9.37 µM
same,GI50,DU-145 prostate,1.76 µM
same,TGI,DU-145 prostate,3.22 µM
same,GI50,OVCAR-3 ovarian,2.32 µM
same,TGI,OVCAR-3 ovarian,7.05 µM
same,GI50,RXF 393 renal,7.9 µM
same,TGI,RXF 393 renal,22.4 µM
same,GI50,SNB-19 CNS,11.8 µM
same,TGI,SNB-19 CNS,24.1 µM
same,GI50,MOLT-4 leukemia,3.3 µM
same,TGI,MOLT-4 leukemia,> 100 µM
same,GI50,OVCAR-8 ovarian,11.4 µM
same,TGI,OVCAR-8 ovarian,26.6 µM
same,GI50,OVCAR-4 ovarian,12 µM
same,TGI,OVCAR-4 ovarian,26.7 µM
same,GI50,MALME-3M melanoma,12.6 µM
same,TGI,MALME-3M melanoma,25.5 µM
same,GI50,CCRF-CEM leukemia,3.14 µM
same,TGI,CCRF-CEM leukemia,18.6 µM
same,GI50,SK-OV-3 ovarian,17.1 µM
same,TGI,SK-OV-3 ovarian,32.3 µM
same,GI50,KM12 colon,13.5 µM
same,TGI,KM12 colon,30.5 µM
same,GI50,UACC-62 melanoma,8.1 µM
same,TGI,UACC-62 melanoma,20.6 µM
same,GI50,NCI/ADR-RES ovarian,15.3 µM
same,TGI,NCI/ADR-RES ovarian,33.7 µM
same,GI50,MDA-MB-231 breast,3.33 µM
same,TGI,MDA-MB-231 breast,12.6 µM
same,GI50,HT29 colon,14.1 µM
same,TGI,HT29 colon,41.3 µM
same,GI50,SN12C renal,9.21 µM
same,TGI,SN12C renal,21.5 µM
same,GI50,HS 578T breast,3.13 µM
same,TGI,HS 578T breast,16.6 µM
same,GI50,MCF7 breast,5.12 µM
same,TGI,MCF7 breast,19.8 µM
same,GI50,NCI-H460 lung,2.69 µM
same,TGI,NCI-H460 lung,8.19 µM
same,GI50,K-562 leukemia,2.36 µM
same,TGI,K-562 leukemia,> 100 µM
same,GI50,UACC-257 melanoma,8.49 µM
same,TGI,UACC-257 melanoma,21.7 µM
same,GI50,HOP-92 NSCLC,10.7 µM
same,TGI,HOP-92 NSCLC,30.3 µM
same,GI50,SF-295 CNS,16.8 µM
same,TGI,SF-295 CNS,32.5 µM
same,GI50,A498 renal,16 µM
same,TGI,A498 renal,30.8 µM
same,GI50,SR leukemia,3.61 µM
same,TGI,SR leukemia,> 100 µM
same,GI50,UO-31 renal,8.66 µM
same,TGI,UO-31 renal,24.1 µM
same,GI50,SK-MEL-28 melanoma,4.6 µM
same,TGI,SK-MEL-28 melanoma,16.1 µM
same,GI50,HCT-15 colon,3.09 µM
same,GI50,U251 CNS,15 µM
same,TGI,U251 CNS,28.9 µM
same,GI50,SNB-75 CNS,1.78 µM
same,TGI,SNB-75 CNS,7.27 µM
same,GI50,CAKI-1 renal,7.32 µM
same,TGI,CAKI-1 renal,20.6 µM
same,GI50,MDA-MB-435,3.26 µM
same,TGI,MDA-MB-435,14.6 µM
same,GI50,NCI-H226 lung,15.5 µM
same,TGI,NCI-H226 lung,32.3 µM
same,GI50,PC-3 prostate,5.56 µM
same,TGI,PC-3 prostate,20.8 µM
same,GI50,HCC-2998 colon,1.78 µM
same,TGI,HCC-2998 colon,3.27 µM
same,GI50,M14 melanoma,1.52 µM
same,TGI,M14 melanoma,4.16 µM
same,GI50,NCI-H23 lung,2.19 µM
same,TGI,NCI-H23 lung,4.91 µM
same,GI50,MDA-MB-468 breast,1.78 µM
same,TGI,MDA-MB-468 breast,3.77 µM
same,GI50,EKVX NSCLC,7.95 µM
same,TGI,EKVX NSCLC,23.9 µM
same,GI50,ACHN renal,14.4 µM
same,TGI,ACHN renal,28.8 µM
same,GI50,SK-MEL-2 melanoma,9.95 µM
same,TGI,SK-MEL-2 melanoma,22.5 µM
same,GI50,HCT-116 colon,1.74 µM
same,TGI,HCT-116 colon,4.3 µM
same,GI50,BT-549 breast,1.63 µM
same,TGI,BT-549 breast,3.16 µM
same,GI50,IGROV1 ovarian,1.78 µM
same,TGI,IGROV1 ovarian,3.62 µM
same,GI50,SW-620 colon,3.86 µM
same,TGI,SW-620 colon,16.7 µM
same,GI50,A549 NSCLC,16.4 µM
same,TGI,A549 NSCLC,38.4 µM
same,GI50,LOX IMVI melanoma,1.67 µM
same,TGI,LOX IMVI melanoma,3.17 µM
same,GI50,786-0 renal,10.6 µM
same,TGI,786-0 renal,25.9 µM
same,GI50,SK-MEL-5 melanoma,3.9 µM
same,TGI,SK-MEL-5 melanoma,14.1 µM
same,GI50,T-47D breast,13.4 µM
same,TGI,T-47D breast,61.6 µM
same,GI50,TK-10 renal,18.9 µM
same,TGI,TK-10 renal,46.9 µM
same,GI50,RPMI-8226 leukemia,15.4 µM
same,TGI,RPMI-8226 leukemia,78.6 µM
same,GI50,NCI-H522 lung,3.28 µM
same,TGI,NCI-H522 lung,15.3 µM
same,GI50,HL-60(TB) leukemia,2.14 µM
same,TGI,HL-60(TB) leukemia,7.28 µM
